Measured values: article PMC12983307 (Journal of the American Chemical Society, 2026)
Bridge positions count the residues as written; N and C are the ends. Peptide text beside a SMILES is read from it.

Target: AgrC (Staphylococcus aureus, UniProt O07911)
Assay: fluorescence polarization displacement of TAMRA-AIP-III D4A from AgrC nanodiscs
Format: binding
Conditions: read-out: % reduction in polarization at 10 μM

Chain of AgrC (O07911 entry or part of it): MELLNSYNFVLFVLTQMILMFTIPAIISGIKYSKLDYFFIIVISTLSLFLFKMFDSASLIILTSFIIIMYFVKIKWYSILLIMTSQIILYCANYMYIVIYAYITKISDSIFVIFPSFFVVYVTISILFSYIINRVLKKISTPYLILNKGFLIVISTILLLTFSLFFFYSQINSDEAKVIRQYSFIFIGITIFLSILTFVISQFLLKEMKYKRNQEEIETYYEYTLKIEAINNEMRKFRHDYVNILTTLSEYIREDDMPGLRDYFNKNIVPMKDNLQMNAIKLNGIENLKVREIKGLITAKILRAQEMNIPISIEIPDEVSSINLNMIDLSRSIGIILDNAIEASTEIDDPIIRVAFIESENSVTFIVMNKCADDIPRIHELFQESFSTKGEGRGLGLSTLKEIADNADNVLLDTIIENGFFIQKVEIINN

In the case of `CC[C@H](C)[C@@H]1NC(=O)[C@H](Cc2ccccc2)NC(=O)[C@H](CC(=O)O)NC(=O)[C@@H](NC(=O)[C@@H](NC(=O)[C@H](CO)NC(=O)[C@@H](N)Cc2ccc(O)cc2)[C@@H](C)O)CSC(=O)[C@H](CCSC)NC1=O` [AIP-I] (H-YSTCDFIM; thioester 4-C), the inhibition at 10 µM is reported as 62%.
